Active and inactive are the calls of the source. No cut-off for these calls is given here.
Experiments:
KYSE-30 = assay: Antiproliferative activity against human KYSE-30 cells by CCK8 assay; format: functional, cell-based
MGC-803 [1] = assay: Induction of cell cycle arrest in human MGC-803 cells assessed as accumulation of cells in G2/M phase at 4 uM incubated for 24 hrs by flow cytometry analysis (reference value: 13.25%); format: functional
[2] = molecular target: T1, NEDD8 activating enzyme (Homo sapiens) (UniProt Q8TBC4+Q13564); assay: Inhibition of NAE in human MGC-803 cells assessed as reduction in NAE1-NEDD8 complex formation at 5 uM incubated for 24 hrs by Western blot analysis relative to control; format: cell-based
[3] = molecular target: T1, NEDD8 activating enzyme (Homo sapiens); assay: Inhibition of NAE in human MGC-803 cells assessed as reduction in cullin1 neddylation incubated for 24 hrs by Western blot analysis; format: cell-based; details: dose 1-5 µM
MGC-803 [4] = assay: Inhibition of cell migration in human MGC-803 cells incubated for 48 hrs by wound healing assay; format: functional, cell-based; details: dose 1-4 µM
MGC-803 [5] = assay: Inhibition of colony formation in human MGC-803 cells incubated for 48 hrs by phase-contrast microscopy; format: functional, cell-based; details: dose 1-4 µM
MGC-803 [6] = assay: Induction of cell cycle arrest in human MGC-803 cells assessed as accumulation of cells at G1 phase at 2 uM incubated for 24 hrs by flow cytometry analysis (reference value: 64.82%); format: functional
MGC-803 [7] = assay: Induction of cell cycle arrest in human MGC-803 cells assessed as accumulation of cells in S phase at 1 uM incubated for 24 hrs by flow cytometry analysis (reference value: 21.93%); format: functional
MGC-803 [8] = assay: Inhibition of cell migration in human MGC-803 cells assessed as reduction in wound closure rate at 4 uM incubated for 48 hrs by wound healing assay (reference value: 49%); format: functional
MGC-803 [9] = assay: Induction of ROS generation in human MGC-803 cells at 1 uM incubated for 24 hrs by DCFH-DA staining based flow cytometry analysis (reference value: 3.1%); format: functional
MGC-803 [10] = assay: Induction of cell cycle arrest in human MGC-803 cells assessed as accumulation of cells in S phase at 4 uM incubated for 24 hrs by flow cytometry analysis (reference value: 21.93%); format: functional
[11] = Selectivity index, ratio of IC50 for human MGC-803 cells to IC50 for HUVECs
MGC-803 [12] = assay: Induction of ROS generation in human MGC-803 cells at 4 uM incubated for 24 hrs by DCFH-DA staining based flow cytometry analysis (reference value: 3.1%); format: functional
MGC-803 [13] = assay: Induction of apoptosis in human MGC-803 cells assessed as viable cells at 2 uM incubated for 48 hrs by Annexin V-FITC/PI double staining based flow cytometry analysis (reference value: 97.3 %); format: functional; details: read-out: Activity
[14] = Selectivity index, ratio of IC50 for human A549 cells to IC50 for HUVECs
MGC-803 [15] = assay: Induction of cell cycle arrest in human MGC-803 cells assessed as accumulation of cells in S phase at 2 uM incubated for 24 hrs by flow cytometry analysis (reference value: 21.93%); format: functional
MGC-803 [16] = assay: Induction of apoptosis in human MGC-803 cells assessed as early apoptosis cells at 1 uM incubated for 48 hrs by Annexin V-FITC/PI double staining based flow cytometry analysis (reference value: 0.39 %); format: functional
[17] = Selectivity index, ratio of IC50 for human MCF7 cells to IC50 for HUVECs
[18] = Cytotoxicity against HUVECs incubated for 72 hrs by CCK8 assay; format: toxicity, cell-based; details: human, HUVEC cells
[19] = molecular target: T1, NEDD8 activating enzyme (Homo sapiens); assay: Inhibition of NAE in human MGC-803 cells assessed as reduction in cullin5 neddylation incubated for 24 hrs by Western blot analysis; format: cell-based; details: dose 1-5 µM
MGC-803 [20] = assay: Induction of cell cycle arrest in human MGC-803 cells assessed as accumulation of cells in G2/M phase at 1 uM incubated for 24 hrs by flow cytometry analysis (reference value: 13.25%); format: functional
MGC-803 [21] = assay: Induction of apoptosis in human MGC-803 cells assessed as late apoptosis cells at 1 uM incubated for 48 hrs by Annexin V-FITC/PI double staining based flow cytometry analysis (reference value: 1.95 %); format: functional
MGC-803 [22] = assay: Induction of cell cycle arrest in human MGC-803 cells assessed as accumulation of cells at G1 phase at 1 uM incubated for 24 hrs by flow cytometry analysis (reference value: 64.82%); format: functional
[23] = molecular target: T1, NEDD8 activating enzyme (Homo sapiens); assay: Inhibition of NAE in human MGC-803 cells assessed as reduction in NAE1-NEDD8 complex incubated for 24 hrs by Western blot analysis; format: cell-based; details: dose 1-5 µM
MGC-803 [24] = assay: Induction of cell cycle arrest in human MGC-803 cells assessed as accumulation of cells at G1 phase at 4 uM incubated for 24 hrs by flow cytometry analysis (reference value: 64.82%); format: functional
MGC-803 [25] = assay: Induction of apoptosis in human MGC-803 cells assessed as necrotic cells at 2 uM incubated for 48 hrs by Annexin V-FITC/PI double staining based flow cytometry analysis (reference value: 0.37 %); format: functional
[26] = molecular target: T1, NEDD8 activating enzyme (Homo sapiens); assay: Inhibition of NAE in human MGC-803 cells assessed as reduction in cullin3 neddylation incubated for 24 hrs by Western blot analysis; format: cell-based; details: dose 1-5 µM
[27] = Selectivity index, ratio of IC50 for human KYSE-30 cells to IC50 for HUVECs
MGC-803 [28] = assay: Induction of apoptosis in human MGC-803 cells assessed as viable cells at 4 uM incubated for 48 hrs by Annexin V-FITC/PI double staining based flow cytometry analysis (reference value: 97.3 %); format: functional; details: read-out: Activity
MGC-803 [29] = assay: Induction of apoptosis in human MGC-803 cells assessed as early apoptosis cells at 2 uM incubated for 48 hrs by Annexin V-FITC/PI double staining based flow cytometry analysis (reference value: 0.39 %); format: functional
MGC-803 [30] = assay: Induction of apoptosis in human MGC-803 cells assessed as viable cells at 1 uM incubated for 48 hrs by Annexin V-FITC/PI double staining based flow cytometry analysis (reference value: 97.3 %); format: functional; details: read-out: Activity
MGC-803 [31] = assay: Induction of apoptosis in human MGC-803 cells assessed as necrotic cells at 4 uM incubated for 48 hrs by Annexin V-FITC/PI double staining based flow cytometry analysis (reference value: 0.37 %); format: functional
MGC-803 [32] = assay: Induction of ROS generation in human MGC-803 cells at 2 uM incubated for 24 hrs by DCFH-DA staining based flow cytometry analysis (reference value: 3.1%); format: functional
MGC-803 [33] = assay: Induction of apoptosis in human MGC-803 cells assessed as early apoptosis cells at 4 uM incubated for 48 hrs by Annexin V-FITC/PI double staining based flow cytometry analysis (reference value: 0.39 %); format: functional
MGC-803 [34] = assay: Antiproliferative activity against human MGC-803 cells by CCK8 assay; format: functional, cell-based
MCF7 = assay: Antiproliferative activity against human MCF7 cells by CCK8 assay; format: functional, cell-based
MGC-803 [35] = assay: Induction of apoptosis in human MGC-803 cells assessed as late apoptosis cells at 4 uM incubated for 48 hrs by Annexin V-FITC/PI double staining based flow cytometry analysis (reference value: 1.95 %); format: functional
A549 = assay: Antiproliferative activity against human A549 cells by CCK8 assay; format: functional, cell-based
MGC-803 [36] = assay: Induction of apoptosis in human MGC-803 cells assessed as necrotic cells at 1 uM incubated for 48 hrs by Annexin V-FITC/PI double staining based flow cytometry analysis (reference value: 0.37 %); format: functional
MGC-803 [37] = assay: Induction of cell cycle arrest in human MGC-803 cells assessed as accumulation of cells in G2/M phase at 2 uM incubated for 24 hrs by flow cytometry analysis (reference value: 13.25%); format: functional
[38] = molecular target: T1, NEDD8 activating enzyme (Homo sapiens); assay: Inhibition of NAE in human MGC-803 cells assessed as reduction in UBC12-NEDD8 complex incubated for 24 hrs by Western blot analysis; format: cell-based; details: dose 1-5 µM
MGC-803 [39] = assay: Induction of apoptosis in human MGC-803 cells assessed as late apoptosis cells at 2 uM incubated for 48 hrs by Annexin V-FITC/PI double staining based flow cytometry analysis (reference value: 1.95 %); format: functional

- inhibition [2]: 100%
- inhibition [3]: Dose-Dependent Effect
- inhibition [19]: inactive
- inhibition [23]: Dose-Dependent Effect
- inhibition [26]: Dose-Dependent Effect
- IC50 (MGC-803 [34]): 1630 nM
- IC50 (MCF7): 960 nM
- IC50 (A549): 870 nM
- inhibition [38]: Dose-Dependent Effect
Structure (SMILES): CCc1ccc(C(=O)Nc2nc3ccc(NC(=O)C4CCN(Cc5ccccc5)CC4)cc3s2)cc1
- IC50 (KYSE-30): 650 nM
- Activity (MGC-803 [1]): 37.66%
- inhibition (MGC-803 [4]): Dose-Dependent Effect
- inhibition (MGC-803 [5]): Dose-Dependent Effect
- Activity (MGC-803 [6]): 61.71%
- Activity (MGC-803 [7]): 13.29%
- inhibition at 4 µM (MGC-803 [8]): < 20%
- Activity (MGC-803 [9]): 6.8%
- Activity (MGC-803 [10]): 17.12%
- Ratio IC50 [11]: 3.8
- Activity (MGC-803 [12]): 26.4%
- viability at 2 µM (MGC-803 [13]): 73.3%
- Ratio IC50 [14]: 3.8
- Activity (MGC-803 [15]): 12.39%
- Activity (MGC-803 [16]): 3.15%
- Ratio IC50 [17]: 3.8
- IC50 at 72 h [18]: 6210 nM
- Activity (MGC-803 [20]): 18.63%
- Activity (MGC-803 [21]): 10.1%
- Activity (MGC-803 [22]): 68.08%
- Activity (MGC-803 [24]): 45.22%
- Activity (MGC-803 [25]): 0.23%
- Ratio IC50 [27]: 3.8
- viability at 4 µM (MGC-803 [28]): 57.6%
- Activity (MGC-803 [29]): 7.92%
- viability at 1 µM (MGC-803 [30]): 86.5%
- Activity (MGC-803 [31]): 0.11%
- Activity (MGC-803 [32]): 13.1%
- Activity (MGC-803 [33]): 8.54%
- Activity (MGC-803 [35]): 33.8%
- Activity (MGC-803 [36]): 0.18%
- Activity (MGC-803 [37]): 25.9%
- Activity (MGC-803 [39]): 18.5%
